According to patent US20110184418A1, “Unsealed, Non-Colloidal Radiopharmaceutical Compositions and Methods for Treatment of Abnormal Tissue” (priority 2009, published 2011):

Test: Radioactive decay of the isotopes
Format: physicochemical
Conditions: at day 30, from half-life

## [177Lu] [Lu-177, lutetium-177]
  radioactive isotope expected to remain in the subject: less than 6.25%

## [166Ho] [Ho-166, holmium-166]
  radioactive isotope expected to remain in the subject: less than 0.20%
